# According to patent publication US12551463B2, “Dosing of a Bruton's tyrosine kinase inhibitor” (Loxo Oncology, Inc., priority 2019, dated 2026):
# Read-outs that look alike come from different tables or passages of the source.
# Molecular target: T1, BTK C481S mutant (Homo sapiens, UniProt Q06187, C481S)
# T1 construct: expressed in transfected cells
# Experiment: BTK Y223 autophosphorylation in HEK293 cells expressing BTK C481S mutant
# Assay type: cell-based
# Method: HEK293 cell lines stably expressing BTK wild type and the mutant form C481S are generated using standard transfection methods. For assessment of cellular inhibition potency, cells are grown in DMEM+10% FBS+1 μg/mL puromycin (complete growth media) at 37° C. in a C02 incubator. Cells are harvested according to standard protocols using TrypLE (Gibco #12604-013), counted, resuspended in complete growth media, and added to 6 well assay plates at […] in 2 mL. Plates are incubated overnight at 37° C. with 5% C02. The following day, cells are treated for 2 hours with BTK-I, prepared as a 6-point dose curve, 1:3 dilution series with final concentrations starting at a maximum concentration of 300 nM and a constant DMSO concentration of 0.5% (v/v). Control wells contain 0.5% (v/v) DMSO alone (no inhibition control). […] Supernatants are quantified by BCA (Pierce #23225) and stored at −80° C. Samples are analyzed by Simple Western (Protein Simple) with anti-phospho-BTK (Y223) (Cell signaling technologies (cst) #5082) and anti-BTK (cst #8547). β-actin is the used as a loading control and detected by regular Western blot with an anti-β-actin antibody (cst #4970). Simple Western results are analyzed with Compass software (Protein Simple). BTK Y223 phosphorylation signal is normalized to total BTK, and IC50 values are calculated using a 4-parameter fit in GraphPad Prism 7.04 software.
# T1 sequence (Q06187 whole entry C481S): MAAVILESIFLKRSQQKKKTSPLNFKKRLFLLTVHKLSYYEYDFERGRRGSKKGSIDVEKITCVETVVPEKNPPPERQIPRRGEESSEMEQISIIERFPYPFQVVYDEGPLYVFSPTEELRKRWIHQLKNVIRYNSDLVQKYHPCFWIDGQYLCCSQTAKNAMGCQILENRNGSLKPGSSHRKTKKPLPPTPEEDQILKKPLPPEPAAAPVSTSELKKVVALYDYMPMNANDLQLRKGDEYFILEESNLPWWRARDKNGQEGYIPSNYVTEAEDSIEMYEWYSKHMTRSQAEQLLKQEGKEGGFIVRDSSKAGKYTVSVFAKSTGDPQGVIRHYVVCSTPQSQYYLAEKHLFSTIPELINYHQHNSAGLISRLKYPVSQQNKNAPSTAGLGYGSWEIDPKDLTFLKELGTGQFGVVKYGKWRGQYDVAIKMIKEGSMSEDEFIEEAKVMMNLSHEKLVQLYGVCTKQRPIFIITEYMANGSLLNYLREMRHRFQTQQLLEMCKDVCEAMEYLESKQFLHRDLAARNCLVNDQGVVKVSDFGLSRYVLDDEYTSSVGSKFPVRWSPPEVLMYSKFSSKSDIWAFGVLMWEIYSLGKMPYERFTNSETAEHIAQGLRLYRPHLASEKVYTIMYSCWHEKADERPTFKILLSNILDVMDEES
compound,measurement,setting,value
"COc1ccc(F)cc1C(=O)NCc1ccc(-c2nn([C@@H](C)C(F)(F)F)c(N)c2C(N)=O)cc1 [BTK-I, (S)-5-amino-3-(4-((5-fluoro-2-methoxybenzamido)methyl)phenyl)-1-(1,1,1-trifluoropropane-2-yl)-1H-pyrazole-4-carboxamide]",IC90,read-out: IC90,79.2 nM
same,IC90,read-out: IC90 translated to total drug in human plasma,0.824 µg/mL
